Measurements published in US10966998B2, “Cancer therapy via a combination of epigenetic modulation and immune modulation” (The Johns Hopkins University, priority 2013, dated 2021).
“Also recorded” adds a separate entry of the source.

Key:
[1] = system: NSCLC cell lines; assay: Genome-wide expression (Agilent arrays, GSEA) and DNA methylation of cell lines treated with AZA; type: cell-based, human
Excerpt: For in vitro DNA methylation values, DNA was extracted from cell lines that were either untreated or treated with AZA at day 3, at the end of treatment, and day 10 (7 days post end of treatment) and analyzed by the Illumina Infinium HumanMethylation450 BeadChips (Illumina, Inc., San Diego, Calif., USA). Raw data were imported into R using the “methylumi” package from Bioconductor (22). Data points for probes with detection p-value >0.05 were masked as NA. Δ beta values (Δ beta value=beta value AZA−beta value Mock) were calculated and used to make boxplots. Heat maps were made similarly like those for the TCGA data using informative probes defined by the TCGA data.
For in vitro RNA extracted from cell lines treated with AZA, analyses were done at exactly the same time points as for DNA methylation above. Analyses from wild type colon cancer, HCT116 cells, and genetic knockout counterparts for DNA methyltransferases (DKO cells) were also performed. Expression microarrays were carried out using Agilent Human 4×44K expression arrays (Agilent Technologies, Santa Clara, Calif., USA, Cat#: G4112F). Within-array and between-array normalization was performed using Loess and Aquantile normalization, respectively (23). Median of the M values (M value Expression=log 2 [AZA/Mock] OR log 2 [DKO/HCT116]) was determined for multiple probes associated with the same gene.
For each of the eight lung cancer cell lines (H838, H1299, H358, H1270, A549, H460, HCC4006, HCC827) a ranked gene list was created (genes were sorted by decreasing M value). These eight ranked gene lists were entered in the GSEA tool (51-52) and the enrichment of both Kegg (53) and Reactome (54) pathways in these lists was calculated (default parameters). A gene set was selected when it was enriched in any of the eight cell lines (p value <0.05 and false discovery rate <0.25). The normalized enrichment scores (NES) for the gene sets in each cell line were used to create the heat maps. When a certain gene set was not significant in a cell line, it was assigned a NES of 0.
Expression and methylation data were analyzed to find genes whose re-expression was linked to demethylation after AZA treatment. Genes were selected based on a set of cut-offs, both for the methylation and expression values: A gene was considered to be re-expressed when at day 3 or day 10 the median M value of all the probes linked to that gene was higher than 0.5. Infinium probes were analyzed separately at their distances from the transcription start site for each gene examined. […] Only probes that were associated with a CpG island and that were located within 1000 bp upstream and 1000 bp downstream of the transcription start site were used in the analyses. The probes that passed these filters were validated using the TCGA methylation and expression data (see the definition of informative probes in the “Infinium DNA Methylation Data” section of Methods). […] To better understand the biological implications of the re-expressed genes, the gene lists were searched for transcription factors. Two human transcription factor lists obtained from Ravasi et al. (25) and Vaquerizas et al. (26, 27) were combined and the resulting list was matched to the lists of demethylated and re-expressed genes.
(§1) A previously validated pre-clinical model was employed to examine how AZA alters expression of key pathways in NSCLC cell lines.(29) Cells were treated in vitro with 500 nM AZA for 72 hours then harvested immediately after withdrawal of drug and again one week later for genome wide methylation and expression studies.

[2] = system: cell surface PD-L1 in NSCLC lines H838 and H1299; assay: Flow cytometry (FACS) of cell surface proteins after AZA treatment; type: cell-based, human; conditions: day 10
Method: Frozen cells were thawed in 37 degrees Celsius and washed once with flow-washing buffer. Aliquots of single-cell suspension were then stained with fluorescent-labeled antibodies for 15 mins at room temperature. Each sample was washed twice and re-suspended in flow-washing buffer and analyzed by FACSCalibur. The following antibodies were used: CD274 (12-5983-42 Ebiosciences), HLA abc(12-9983-42 Ebiosciences), CD276(331606 Biolegend), CD119(558934 BD), B2 microblogumin(551337BD), CD58(555921BD). Changes between AZA treated and mock cells were calculated using mean fluorescence intensities (MFI) and the formula log 2([(MFIantibody, treated)−(MFIisotype, treated)]/[(MFIantibody, mock)−(MFIisotype, mock)]).
as §1

[3] = system: epithelial cell lines and AML cell lines; assay: Gene expression in tumor-derived cell lines with AZA treatment (FIG. 2); type: cell-based

For Nc1ncn([C@@H]2O[C@H](CO)[C@@H](O)[C@H]2O)c(=O)n1 [AZA, 5-azacytidine], the “immune-related pathways by Gene Set Enrichment Analysis” value ([1]; 500 nM AZA for 72 hours, NSCLC cell lines) was “up-regulation of multiple immune-related pathways”, the IRAK3 expression ([1]; H838 cells) was “up-regulated” and the “number of genes 4-fold or more up-regulated” value ([1]; H2170 cells, day 10) was 114 genes. The IRF7 expression increase ([1]; LUSC cell line H2170) was 9 fold, the “CD80 and CD86 expression” value ([1]; NSCLC cell lines) was “not altered” and the “number of genes with high baseline promoter CpG island methylation, demethylation of 25% or more and expression increased 1.4-fold or greater” value ([1]; NSCLC cell lines) was “Approximately 300 genes”. The IFI27 expression ([1]; NSCLC lines) was “up-regulated”, the “MAVS (antiapoptotic gene) expression” value ([1]; NSCLC lines) was “down-regulation” and the “interferon-γ receptor (IFNGR1) and STAT gene (incl. STAT1) expression” value ([1]; NSCLC lines) was “up-regulation”. For the same compound, the “transcripts of HLA Class I antigens, B2M, CD58, TAP1, PMSB9 and PSMB8” value ([1]; NSCLC lines) was “upregulates”, the γ-interferon expression ([1]; NSCLC lines) was “not induced” and the “antiapoptotic genes BCL2 and BIRC5 (SURVIVIN) expression” value ([1]; especially cell line H838) was “decreases”. The autophagy gene expression ([1]; especially cell line H838) was “increases”, the PD-L1 transcript level ([1]; several NSCLC cell lines) was “up-regulated” and the “cell surface PD-L1 protein level” value [2] was “up-regulated; also recorded: increased”. For the same compound, the “gene expression changes with AZA treatment” value [3] was “pro-inflammatory changes”.
